Assay [1] is described as follows: Atherosclerotic lesion area in ApoE-deficient mice (en face Oil-Red-O). The class given is in vivo, mouse. The settings on record: high-fat diet 15 weeks, s.c. 6 days a week, FN-439 5 mg/kg, P1pal-7 10 mg/kg; for mean lesion area, abdominal section of the aorta: vehicle 8.9%; for mean lesion area, aortic section, % of the total area: vehicle 12.9%. As to the method:
Twenty five (25) 86.129P2-Apoe^fm1Unc/J mice, 7 weeks old, were separated into 3 groups and fed ad libitum with high-fat/high-cholesterol diet (21% fat, 0.21% cholesterol) (0120798, Research Diets) for 15 weeks. Group I included 8 mice (n=8) was used as a control group and received Vehicle (20% DMSO in 1×PBS). Group II included 8 mice (n=8) that were treated with MMP Inhibitor I FN-439 (Calbiochem) at a dose of 5 mg/kg. Lastly, group III included 9 mice (n=9) treated with 10 mg/kg of the P1pal-7 pepducin lipopeptide. […] P1pal-7 is a cell-penetrating pepducin lipopeptide based on the third intracellular loop (i3) of human PAR1 and acts as an antagonist of PAR1 signaling. All mice were injected subcutaneously with 100 μl of the corresponding treatment for 6 days a week. At the end of the treatment, and after a 4 hours fasting, the mice were anesthetized with ketamine/xylazine and pressure-fixed with 10% formalin. The heart and the aorta of each mouse were isolated, removed and fixed for 2 days in 10% formalin and adventitial fat was removed. The abdominal area of the aorta was cut and used for whole mount immunohistochemistry. The “aortic arch/thoracic” area and the rest of the “abdominal/iliac” area of the aorta were cut open and pinned on dissecting black wax and used for “en face” staining with Oil-Red-O.
To study the extent of artherosderotic plaque formation, pinned aortas were first fixed in 10% formalin and kept in 1×PBS. The aorta of the mice were then subjected to “en face” staining with Oil-Red-O, which stains lipids red. Briefly, the PBS was drained from the samples and the stain solution was added for 45 min. The stain was drained and the samples were washed first with 70% Ethanol and then with water, in order to remove the background. Digital pictures of the stained aortas were taken and the MetaXpress software (Molecular Devices) was used to define and quantify the total aortic area as well as the lesion areas. The ratio of lesion area to the total aortic area was calculated for the “aortic arch/thoracic” and the “abdominal/iliac” area. The aorta of each mouse was isolated and separated into three sections. The abdominal section (before and after the renal arteries) was separated and used for whole mount immunohistochemistry. The remaining sections were the one from the aortic arch to the mesenteric artery (aortic) and the other from after the renal arteries to the iliac arteries (abdominal). These sections of the aorta were used for the “en face” staining and the estimation of the atherosclerotic lesion area.

Assay [2] is described as follows: Angiogenesis in adventitia of abdominal aorta of ApoE-/- mice (CD31 whole mount immunostaining). The assay is classed as in vivo, mouse. The settings on record: 15 weeks. As to the method: Angiogenesis may promote the progression of atherosclerosis and contribute to plaque instability and rupture. […] Angiogenesis was therefore evaluated in the adventitia of aortas from apoE−/− mice fed a high fat diet for 15 weeks and treated with either the MMP-1 collagenase inhibitor, MMP Inh-1 (FN-439) or the PAR1 antagonist, P1pal-7. The mice were then anesthetized with Ketamine/Xylazine and pressure fixed with 10% formalin. The abdominal aorta was isolated, removed and fixed for 1 hour with 10% formalin and adventitial fat was removed. The abdominal aorta were then whole mount immunostained for CD31, a marker for endothelial cells and 3D projection images were constructed from multiple confocal sections using the following procedure. Briefly, the tissue was blocked for 1 hour with 5% goat serum in Tris buffered saline containing 0.3% Triton-X 100 (TBST) and incubated overnight at 4° C. with primary antibody diluted 1:1000 in TBST. After several washes with TBST, the tissue was incubated with fluorescently tagged secondary antibody diluted in TBST for 4 hours. The tissue was washed and post-fixed with 4% paraformaldehyde for 10 minutes. The aorta was then cut lengthwise and splayed open onto a microscope slide with the adventitial side up. The tissue was whole mounted with Vectashield mounting media and imaged using a Leica TCS SP2 confocal microscope […]. Confocal images were constructed into 3D projections of Z-stacks. Quantification of images was performed using NIH ImageJ. Antibodies used were: hamster anti-mouse PECAM-1 (Chemicon) and Cy3-anti-hamster (Jackson Immunolabs).

Assay [3] is described as follows: Collagen-induced systemic platelet activation (thrombocytopenia) in guinea pigs. The assay is classed as in vivo, guinea pig. The settings on record: i.v. P1pal-7 3 mg/kg or FN-439 10 mg/kg, 10 min before 200 μg collagen. The protocol:
Animal experiments were performed in accordance with the National Institutes of Health guidelines and approved by the Tufts Medical Center Institutional Animal Care and Use Committee. 2-4 week old Hartley guinea pigs (170-260 g) were anesthetized by an i.p. injection of xylazine (10 mg/kg) plus ketamine (50 mg/kg) and then catheterized via the left jugular vein and injected (200 μL) with either vehicle (20% DMSO/80% water), P1pal-7 or FN-439. For determination of collagen-dependent systemic platelet activation, 10 min after administration of inhibitors, 200 μg collagen in 200 μL of PBS was delivered via the jugular vein. Ten min after collagen injection, blood was collected into sodium citrate (1% v/v final) from the contralateral jugular vein and platelet counts were measured with a Hemavet850. The enzymatic activity of active MMP-1 in supernatants and platelet lysates was determined using DQ collagen I as fluorogenic substrate in the presence or absence of 3 μM FN-439, or 20 μg/ml of control IgG or a MMP-1 blocking Ab (preincubated for 2 h at 37° C.), as indicated.
Intravascular platelet activation was then induced by an intravenous injection of collagen into the guinea pigs. Vehicle, P1pal-7 (3 mg/kg) or FN-439 (10 mg/kg) were delivered i.v. to the internal jugular vein of guinea pigs (n=6) and allowed to circulate for 10 min. […]

Assay [4] is described as follows: Carotid artery FeCl3 injury arterial thrombosis model. The class given is in vivo, guinea pig. The settings on record: for prolongation of the mean occlusion time: P1pal-7 alone 0.3 mg/kg, FN-439 alone 2.0 mg/kg i.v. The text has this:
To assess the efficacy on arterial thrombosis by blockade of thrombin, MMP-1, or PAR1, a standard carotid artery FeCl3 injury model was used in guinea pigs. FeCl3 causes denudation of the artery and exposure of type I collagen and other subendothelial matrix proteins. The effects of blocking thrombin with bivalirudin, MMP-1 with FN-439, and PAR1 with either the small molecule antagonist RWJ-56110 or the P1pal-7 pepducin on arterial thrombosis were then compared using a dopier probe.
For these arterial thrombosis experiments, 10 min after i.v. administration of vehicle (−), bivalirudin, RWJ-56110, P1 pal-7 or FN-439 (n=4-5) through the jugular vein at the indicated concentrations, the right carotid arteries were injured for 20 min using a 24 mm^2 piece of Bio-Rad Trans-Blot paper soaked in 20% FeCl3. Arterial flow 5 mm distal to the site of injury was measured with a 0.5 V Doppler probe (Transonic Systems). An arterial occlusion was defined as a flow rate of <0.01 V for ≧5 min. Doppler measurements were terminated at the 30 min time point following injury (* designates p<0.05).

For another assay, the system named is MAPKAP-K2. Briefly: Collagen activation of phospho-MAPKAP-K2 in platelets (data not shown). The assay is classed as cell-based, human.

This note sets out measurements from patent publication US9376499B2, “PAR-1 activation by metalloproteinase-1 (MMP-1)” (Tufts Medical Center, Inc., priority 2009, dated 2016).

Non-standard residues stand in square brackets, D forms with d. Residues, ends and D or L forms follow the SMILES beside them. No end group written: not given here. *: point of attachment. 4Abz = Nc1ccc(C(=O)O)cc1; NHOH = ON*

Turning to “P1pal-7: PAR1 i3 loop pepducin lipopeptide, KKSRALF (SEQ ID NO. 2), palmitate (also: palmitate, site not given here)”, in assay [1], the “mean lesion area, abdominal section of the aorta” value was determined as 2.3% and the “mean lesion area, aortic section, % of the total area” value is reported as 8.1%. Moreover, in assay [2], the “amount of CD31-positive vessels” value is “significantly reduced”, the “number of branch points per vessel area” value is “significantly inhibited” and the “number of vascular bundles in the adventitia of the aorta” value is reported as “significantly reduced”. Also, the “protection against collagen-induced thrombocytopenia / intravascular platelet activation” value in assay [3] is listed as “almost completely protected”. Also, in assay [4] (0.13 mg/kg P1pal-7 supplemented with 0.18 mg/kg bivalirudin), the “additional prolongation of arterial occlusion time in combination” value is “no additional prolongation”. In assay [4], the “prolongation of the mean occlusion time” value is 80%. Besides, the “block of collagen-activation of phospho-MAPKAP-K2” value in the assay on MAPKAP-K2 was “blocked”.

Turning to `CC(C)C[C@@H](NC(=O)[C@@H]1CCCN1C(=O)CNC(=O)c1ccc(N)cc1)C(=O)N[C@H](C)C(=O)NO` [FN-439] (H-[4Abz]GP[dL][dA]-{NHOH}), in assay [1], the “mean lesion area, abdominal section of the aorta” value was 4.1% and the “mean lesion area, aortic section, % of the total area” value turned out to be 10.7%. Further, in assay [2], the “amount of CD31-positive vessels” value is given as “significantly reduced”, the “number of branch points per vessel area” value is “significantly inhibited” and the “number of vascular bundles in the adventitia of the aorta” value was “significantly reduced”. For the same compound, in assay [3], the “protection against collagen-induced thrombocytopenia / intravascular platelet activation” value was “significant protection”. The “prolongation of the mean occlusion time” value in assay [4] turned out to be 90%. Also, the “block of collagen-activation of phospho-MAPKAP-K2” value with MAPKAP-K2 was “blocked”.
